Test results from PubChem BioAssay (NCI).
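Growth conditions: 96-well plates. Treatment: test compound, 48 hours, 5 concentrations. Analysis: linear interpolation between bracketing concentrations; unreached endpoints set to highest concentration. GI50 is the concentration that inhibits growth by half. TGI marks complete inhibition of growth.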

Experiments:
Experiment in all cases: inhibition of tumour cell growth, NCI panel, 48 h
[1] = test system: 786-0 renal
[2] = test system: A498 renal
[3] = test system: A549 NSCLC
[4] = test system: ACHN renal
[5] = test system: BT-549 breast
[6] = test system: CAKI-1 renal
[7] = test system: CCRF-CEM leukemia
[8] = test system: DU-145 prostate
[9] = test system: EKVX NSCLC
[10] = test system: HCC-2998 colon
[11] = test system: HCT-116 colon
[12] = test system: HCT-15 colon
[13] = test system: HOP-92 NSCLC
[14] = test system: HS 578T breast
[15] = test system: IGROV1 ovarian
[16] = test system: K-562 leukemia
[17] = test system: KM12 colon
[18] = test system: LOX IMVI melanoma
[19] = test system: M14 melanoma
[20] = test system: MALME-3M melanoma
[21] = test system: MCF7 breast
[22] = test system: MDA-MB-231 breast
[23] = test system: MDA-MB-435
[24] = test system: NCI-H226 lung
[25] = test system: NCI-H23 lung
[26] = test system: NCI-H460 lung
[27] = test system: NCI-H522 lung
[28] = test system: NCI/ADR-RES ovarian
[29] = test system: OVCAR-3 ovarian
[30] = test system: OVCAR-5 ovarian
[31] = test system: OVCAR-8 ovarian
[32] = test system: PC-3 prostate
[33] = test system: RPMI-8226 leukemia
[34] = test system: RXF 393 renal
[35] = test system: SF-268 CNS
[36] = test system: SF-295 CNS
[37] = test system: SF-539 CNS
[38] = test system: SK-MEL-2 melanoma
[39] = test system: SK-MEL-28 melanoma
[40] = test system: SK-MEL-5 melanoma
[41] = test system: SK-OV-3 ovarian
[42] = test system: SN12C renal
[43] = test system: SNB-19 CNS
[44] = test system: SNB-75 CNS
[45] = test system: SR leukemia
[46] = test system: SW-620 colon
[47] = test system: T-47D breast
[48] = test system: TK-10 renal
[49] = test system: UACC-257 melanoma
[50] = test system: UACC-62 melanoma
[51] = test system: UO-31 renal
[52] = test system: COLO 205 colon
[53] = test system: HL-60(TB) leukemia
[54] = test system: HOP-62 NSCLC
[55] = test system: HT29 colon
[56] = test system: MOLT-4 leukemia
[57] = test system: OVCAR-4 ovarian
[58] = test system: U251 CNS

`COc1cc2nccc(Oc3ccc(NC(=O)C4(C(=O)Nc5ccc(F)cc5)CC4)cc3)c2cc1OC(=O)c1ccc(N)cc1` showed a GI50 [1] of 1.81 µM, a TGI [1] of 4.45 µM and a GI50 [2] of 2.03 µM. For the same compound, the TGI [2] was 4.53 µM, the GI50 [3] was 3.11 µM and the TGI [3] was greater than 100 µM. It also gave a GI50 [4] of 3.73 µM, a TGI [4] greater than 100 µM and a GI50 [5] of 2.88 µM. For the same compound, the TGI [5] was greater than 100 µM, the GI50 [6] was 2.68 µM and the TGI [6] was greater than 100 µM. It also gave a GI50 [7] of 2.6 µM, a TGI [7] greater than 100 µM and a GI50 [8] of 3.48 µM. The TGI [8] was greater than 100 µM, the GI50 [9] was 5.31 µM and the TGI [9] was greater than 100 µM. For the same compound, the GI50 [10] was 3.88 µM, the TGI [10] was greater than 100 µM and the GI50 [11] was 3.08 µM. For the same compound, the TGI [11] was greater than 100 µM, the GI50 [12] was 2.17 µM and the TGI [12] was greater than 100 µM. It also gave a GI50 [13] of 0.2 µM, a TGI [13] of 2.42 µM and a GI50 [14] of 0.29 µM. For the same compound, the TGI [14] was 2.07 µM, the GI50 [15] was 6.92 µM and the TGI [15] was greater than 100 µM. For the same compound, the GI50 [16] was 1.09 µM, the TGI [16] was 4.91 µM and the GI50 [17] was 0.0936 µM. The TGI [17] was greater than 100 µM, the GI50 [18] was 1.92 µM and the TGI [18] was 5.31 µM. The GI50 [19] was 2.79 µM, the TGI [19] was greater than 100 µM and the GI50 [20] was 2.47 µM. It also gave a TGI [20] greater than 100 µM, a GI50 [21] of 1.72 µM and a TGI [21] greater than 100 µM. The GI50 [22] was 1.98 µM, the TGI [22] was 6.53 µM and the GI50 [23] was 2.18 µM. It also gave a TGI [23] greater than 100 µM, a GI50 [24] of 3.11 µM and a TGI [24] greater than 100 µM. The GI50 [25] was 1.98 µM, the TGI [25] was greater than 100 µM and the GI50 [26] was 3.49 µM. For the same compound, the TGI [26] was 54.2 µM, the GI50 [27] was 2.65 µM and the TGI [27] was greater than 100 µM. It also gave a GI50 [28] of 3.74 µM, a TGI [28] greater than 100 µM and a GI50 [29] of 4.36 µM. It also gave a TGI [29] greater than 100 µM, a GI50 [30] of 2.23 µM and a TGI [30] greater than 100 µM. For the same compound, the GI50 [31] was 5.77 µM, the TGI [31] was greater than 100 µM and the GI50 [32] was 2.5 µM. The TGI [32] was greater than 100 µM, the GI50 [33] was 2.66 µM and the TGI [33] was greater than 100 µM. It also gave a GI50 [34] of 0.314 µM, a TGI [34] of 1.99 µM and a GI50 [35] of 1.63 µM. The TGI [35] was greater than 100 µM, the GI50 [36] was 0.262 µM and the TGI [36] was 1.47 µM. It also gave a GI50 [37] of 0.246 µM, a TGI [37] of 2.04 µM and a GI50 [38] of 2.38 µM. For the same compound, the TGI [38] was 14.5 µM, the GI50 [39] was 1.34 µM and the TGI [39] was 5.16 µM. The GI50 [40] was 4.46 µM, the TGI [40] was greater than 100 µM and the GI50 [41] was 2.95 µM. The TGI [41] was 8.05 µM, the GI50 [42] was 1.39 µM and the TGI [42] was greater than 100 µM. It also gave a GI50 [43] of 3.05 µM, a TGI [43] greater than 100 µM and a GI50 [44] of 0.199 µM. For the same compound, the TGI [44] was 1.39 µM, the GI50 [45] was 0.626 µM and the TGI [45] was greater than 100 µM. It also gave a GI50 [46] of 2.92 µM, a TGI [46] greater than 100 µM and a GI50 [47] of 2.92 µM. For the same compound, the TGI [47] was greater than 100 µM, the GI50 [48] was 6.62 µM and the TGI [48] was greater than 100 µM. For the same compound, the GI50 [49] was 4.91 µM, the TGI [49] was greater than 100 µM and the GI50 [50] was 2.85 µM. The TGI [50] was greater than 100 µM, the GI50 [51] was 1.58 µM and the TGI [51] was 6.58 µM.
`[N-]=[N+]=Nc1cccc(-c2n[nH]c(Cl)cc2=O)c1` showed a TGI [1] greater than 100 µM, a TGI [2] greater than 100 µM and a TGI [3] greater than 100 µM. The TGI [4] was greater than 100 µM, the TGI [5] was greater than 100 µM and the TGI [7] was greater than 100 µM. It also gave a TGI [52] greater than 100 µM, a TGI [8] greater than 100 µM and a TGI [9] greater than 100 µM. It also gave a TGI [10] greater than 100 µM, a TGI [11] greater than 100 µM and a TGI [12] greater than 100 µM. For the same compound, the TGI [53] was greater than 100 µM, the TGI [54] was greater than 100 µM and the TGI [13] was greater than 100 µM. It also gave a TGI [14] greater than 100 µM, a TGI [55] greater than 100 µM and a TGI [15] greater than 100 µM. For the same compound, the TGI [16] was greater than 100 µM, the TGI [17] was greater than 100 µM and the TGI [18] was greater than 100 µM. For the same compound, the TGI [19] was greater than 100 µM, the TGI [20] was greater than 100 µM and the TGI [21] was greater than 100 µM. For the same compound, the TGI [22] was greater than 100 µM, the TGI [23] was greater than 100 µM and the TGI [56] was greater than 100 µM. The TGI [24] was greater than 100 µM, the TGI [25] was greater than 100 µM and the TGI [26] was greater than 100 µM. It also gave a TGI [27] greater than 100 µM, a TGI [28] greater than 100 µM and a TGI [29] greater than 100 µM. It also gave a TGI [57] greater than 100 µM, a TGI [31] greater than 100 µM and a TGI [32] greater than 100 µM. It also gave a TGI [33] greater than 100 µM, a TGI [34] greater than 100 µM and a TGI [35] greater than 100 µM. For the same compound, the TGI [36] was greater than 100 µM, the TGI [37] was greater than 100 µM and the TGI [39] was greater than 100 µM. For the same compound, the TGI [41] was greater than 100 µM, the TGI [42] was greater than 100 µM and the TGI [44] was greater than 100 µM. The TGI [45] was greater than 100 µM, the TGI [46] was greater than 100 µM and the TGI [47] was greater than 100 µM. The TGI [48] was greater than 100 µM, the TGI [58] was greater than 100 µM and the TGI [49] was greater than 100 µM. It also gave a TGI [50] greater than 100 µM.
